Patent US20140213446A1, “HERBICIDAL COMPOSITIONS AND METHODS USING COMBINATIONS OF 4-AMINO-3-CHLORO-6-(4-CHLORO-2-FLUORO-3-METHOXYPHENYL)PYRIDINE-2-CARBOXYLIC ACID OR A DERIVATIVE THEREOF AND AN ARYLOXYPHENOXY PROPIONATE ACCASE INHIBITOR HERBICIDE” (DOW AGROSCIENCES LLC, priority 2013, published 2014)

Experiments:
Experiment in all cases: Postemergence foliar-applied herbicidal mixtures, weeds common to row crops
Type in all cases: in vivo
[1] = tested on: DIGSA Digitaria sanguinalis (L.) Scop. (large crabgrass)
Text: (§1) Evaluation of Postemergence Foliar-Applied Herbicidal Mixtures for Control of Weeds Common to Row Crops such as Corn and Soybeans. Seeds or nutlets of the desired test plant species were planted in a soil matrix prepared by mixing a loam or sandy loam soil (e.g., 28.6 percent silt, 18.8 percent clay, and 52.6 percent sand, with a pH of about 5.8 and an organic matter content of about 1.8 percent) and calcareous grit in an 80 to 20 ratio. The soil matrix was contained in plastic pots with a surface area of 84.6 cm^2 and a volume of 560 cubic centimeters (cm^3). When required to ensure good germination and healthy plants, a fungicide treatment and/or other chemical or physical treatment was applied. The plants were grown for 7-31 d in a greenhouse with an approximate 15 h photoperiod which was maintained at about 23-29° C. during the day and 22-28° C. during the night. Nutrients (Peters Excel® 15-5-15 5-Ca 2-Mg) and water were added on a regular basis and supplemental lighting was provided with overhead metal halide 1000-Watt lamps as necessary. The plants were employed for testing when they reached the first, second, or third true leaf stage.
(§2) Treatment requirements were calculated based upon the rates being tested, the concentration of active ingredient or acid equivalent in the formulation, and a 12 mL application volume at a rate of 187 L/ha.
(§3) Treatments consisted of the potassium (K^+) salt of 4-amino-3-chloro-6-(4-chloro-2-fluoro-3-methoxyphenyl)-pyridine-2-carboxylic acid (Cmpd 4) formulated as a soluble liquid (SL), the propargyl ester of 4-amino-3-chloro-6-(4-chloro-2-fluoro-3-methoxyphenyl)-pyridine-2-carboxylic acid (Cmpd 2) as technical grade material, or the benzyl ester of 4-amino-3-chloro-6-(4-chloro-2-fluoro-3-methoxyphenyl)-pyridine-2-carboxylic acid (Cmpd 3) as technical grade material and quizalofop-p-ethyl (Assure® II) alone and in combination. Forms of compound of formula (I) and quizalofop-P-ethyl were applied on an acid equivalent basis.
(§4) For treatments comprised of formulated compounds, measured amounts of compounds were placed individually in 25 mL glass vials and diluted in a volume of 1.5% (v/v) Agri-Dex® crop oil concentrated to obtain 6× stock solutions. […] Application solutions were prepared by adding an appropriate amount of each stock solution (typically 2 mL) and diluted to the appropriate final concentrations with the addition of an appropriate amount of an aqueous mixture of 1.5% (v/v) crop oil concentrate and water so that the final spray solutions contained 1.25+/−0.05% (v/v) crop oil concentrate.
(§5) For treatments comprised of formulated and technical compounds, weighed amounts of the technical materials were placed individually in 25 mL glass vials and dissolved in a volume of 97:3 v/v acetone/DMSO to obtain 6× stock solutions, and measured amounts of the formulated compounds were placed individually in 25 mL glass vials and diluted in a volume of 1.5% (v/v) crop oil concentrate or water to obtain 6× stock solutions. […] Application solutions were prepared by adding an appropriate amount of each stock solution (e.g., 2 mL) and diluted to the appropriate final concentrations with the addition of an appropriate amount of an aqueous mixture of 1.5% (v/v) crop oil concentrate and water so that the final spray solutions contained 1.25% (v/v) crop oil concentrate. When required, additional water and/or 97:3 v/v acetone/DMSO can be added to individual application solutions so that the final acetone and DMSO concentrations of the application solutions being compared are 16.2% and 0.5%, respectively.
(§6) All stock solutions and applications solutions were visually inspected for compound compatibility prior to application. Compound requirements are based upon a 12 mL application volume at a rate of 187 liters per hectare (L/ha). […]

[2] = tested on: LOLMU Lolium multiflorum Lam. (Italian ryegrass)
Text: as §1, §2, §3, §4, §5, §6

[3] = tested on: OEOBI Oenothera biennis (evening primrose)
Text: as §1, §2, §3, §4, §5, §6

[4] = tested on: SORHA Sorghum halepense (L.) Pers. (Johnsongrass)
Text: as §1, §2, §3, §4, §5, §6

[5] = tested on: AVEFA Avena fatua L. (wild oat)
Text: as §1, §2, §3, §4, §5, §6

Row | Compound | Percent (%) injury rated visually 14 DAA Obs ([1]; Cmpd 4 3.75 g ae/ha) [%] | Percent (%) injury rated visually 14 DAA Obs ([1]; Cmpd 4 7.5 g ae/ha) [%] | Percent (%) injury rated visually 14 DAA Obs ([1]; Cmpd 4 15 g ae/ha) [%] | Percent (%) injury rated visually 14 DAA Obs ([2]; Cmpd 4 3.75 g ae/ha) [%] | Percent (%) injury rated visually 14 DAA Obs ([2]; Cmpd 4 7.5 g ae/ha) [%] | Percent (%) injury rated visually 14 DAA Obs ([2]; Cmpd 4 15 g ae/ha) [%] | Percent (%) injury rated visually 14 DAA Obs ([3]; Cmpd 4 3.75 g ae/ha) [%] | Percent (%) injury rated visually 14 DAA Obs ([3]; Cmpd 4 7.5 g ae/ha) [%] | Percent (%) injury rated visually 14 DAA Obs ([4]; Cmpd 4 3.75 g ae/ha) [%] | Percent (%) injury rated visually 14 DAA Obs ([4]; Cmpd 4 7.5 g ae/ha) [%] | Percent (%) injury rated visually 14 DAA Obs ([4]; Cmpd 4 15 g ae/ha) [%] | Percent (%) injury rated visually 14 DAA Obs ([5]; Cmpd 3 3.75 g ae/ha) [%] | Percent (%) injury rated visually 14 DAA Obs ([5]; Cmpd 3 7.5 g ae/ha) [%] | Percent (%) injury rated visually 14 DAA Obs ([5]; Cmpd 3 15 g ae/ha) [%] | Percent (%) injury rated visually 14 DAA Obs ([1]; Cmpd 3 3.75 g ae/ha) [%] | Percent (%) injury rated visually 14 DAA Obs ([1]; Cmpd 3 7.5 g ae/ha) [%] | Percent (%) injury rated visually 14 DAA Obs ([1]; Cmpd 3 15 g ae/ha) [%] | Percent (%) injury rated visually 14 DAA Obs ([2]; Cmpd 3 3.75 g ae/ha) [%] | Percent (%) injury rated visually 14 DAA Obs ([2]; Cmpd 3 7.5 g ae/ha) [%] | Percent (%) injury rated visually 14 DAA Obs ([2]; Cmpd 3 15 g ae/ha) [%]
1 | potassium (K^+) salt of 4-amino-3-chloro-6-(4-chloro-2-fluoro-3-methoxyphenyl)-pyridine-2-carboxylic acid [Cmpd 4] | 20 | 15 | 40 | 0 | 15 | 40 | 50 | 80 | 0 | 0 | 10 | – | – | – | – | – | – | – | – | –
2 | COc1c(Cl)ccc(-c2cc(N)c(Cl)c(C(=O)OCc3ccccc3)n2)c1F [Cmpd 3, benzyl ester of 4-amino-3-chloro-6-(4-chloro-2-fluoro-3-methoxyphenyl)-pyridine-2-carboxylic acid] | – | – | – | – | – | – | – | – | – | – | – | 10 | 0 | 0 | 40 | 40 | 35 | 15 | 50 | 40
